Assay results reported in patent US12303530B2, “Combination therapy of cycloserine and lithium for the treatment of depression” (NEURORIVE INC, priority 2019, dated 2025).

System: mice (C57BL6)
Assay: forced swimming test (FST)
Format: in vivo, mouse
Details: FST in an hour after administration, immobility time measured for the last 4 minutes of 6 minutes
Experimental: In order to test an effect of reducing depression depending on administration of the pharmaceutical composition of the present invention, mice were subjected to a forced swimming test (FST). The FST, which is to measure a coping strategy for acute stress that inevitably occurs, is an animal behavioral experiment commonly used to measure antidepressant effects. To confirm the effect of reducing depression by combined administration of D-cycloserine (DCS) and lithium, 10 ml/kg of the preparation was administered to all groups of mice (C57BL6). […] After 1 hour, the forced swimming test (FST) that measures depression-like behavior was performed on the mice. Specifically, each group of mice was individually placed in a 3 L Pyrex beaker (13 cm in diameter, 24 cm in height), and the beakers were filled with 27.5±1.5° C. of water up to a depth of 9 cm. All mice were forced to swim for 6 minutes, and immobility time was measured for the last 4 minutes of the experiment. The immobility time is defined as the […] time taken while the mouse is floating without struggling or taking only the movement required for keeping the mouse's head above the water surface.

Compound | immobility in forced swimming test, compared to the control group administered with the vehicle
N[C@@H]1CONC1=O [DCS, D-cycloserine] | did not show statistical significance
O=C([O-])[O-].[Li+].[Li+] [Li2CO3, Lithium carbonate] | did not show statistical significance
